Measurements as given in USRE38551E1, “Anticonvulsant enantiomeric amino acid derivatives” (priority 1996, dated 2004).

Columns and labels:
Type in all cases: in vivo
motor impairment = motor impairment (ataxia, gait, stance) observation, rats (po)
From the text: (§1) Compounds were screened for anticonvulsant activity in both male albino Carthworth Farms No. 1 mice (ip route) and male albino Sprague Dawley rats [oral (po) route]. Activity was established using the electrical (maximal electroshock or MES) test. In the MES test, a drop of electrolyte solution with anesthetic (0.5% butacaine hemisulfate in 0.9% sodium chloride) was used in the eyes of the animals prior to positioning the corneal electrodes and delivery of current. A 60 cycle alternating current was administered for 0.2 sec. in both species, 50 mA in mice and 150 mA in rats. Protection endpoints were defined as the abolition of the hind limb tonic extensor component of the induced seizure. In mice, effects of compounds on forced spontaneous motor activity were determined using the rotorod test. […] Normally under these conditions, mice maintain their balance almost indefinitely. In rats, motor impairment is assessed by observing for overt evidence of ataxia, abnormal gait and stance, and/or loss of placing response and muscle tone. In the mouse identification screening study all compounds were given at three dose levels (30, 100, 300 mg/kg) and two time periods (0.5 hours, 4 hours). Typically, in the MES seizures test one animal was tested at 30 mg/kg and 300 mg/kg, and three animals at 100 mg/kg. In the rotored toxicity test four animals were tested at 30 mg/kg, and 300 mg/kg, and eight animals at 100 mg/kg.
(§2) The quantitative determination of the median effective (ED50) and toxic doses (TD50) was conducted at previously calculated times of peak effect. Groups of at least eight animals were tested using different doses of test compound until at least two points wee determined between 100 and 0% protection and minimal motor impairment. The dose of candidate substance required to produce the defined end-point in 50% of the animals in each test and the 95% confidence interval was calculated.

hexobarbital sleep time = hexobarbital sleep time test; conditions: rats
Procedure: All rats subjected to the 5-day tolerance studies were maintained in their home cage for 24 hours and then subjected to the hexobarbital sleep time test (day 6). Each rat in each of the 3 groups was given 100 mg/kg of hexobarbital (i.p.) and the sleep time measured to the nearest minute. The mean sleep time and S.E. for each group were calculated.

[1] = tested on: motor impairment (rotorod test); experiment: rotorod neurologic toxicity test, mice (ip); conditions: mice, ip, rotorod test, at time of peak effect
From the text: as §1, with “A 60 cycle alternating current was administered for 0.2 sec. in both species, 50 mA in mice and 150 mA in rats.” left out
as §2

[2] = rotorod neurologic toxicity test, mice (ip); conditions: male, Carthworth Farms No. 1, in vivo, ip; mouse, i.p., rotorod test at peak effect (Table 6); read-out: MOUSE ED50 Neurotox
From the text: as §1, with “A 60 cycle alternating current was administered for 0.2 sec. in both species, 50 mA in mice and 150 mA in rats.” left out
as §2

[3] = tested on: maximal electroshock (MES) induced seizure; experiment: 5-day chronic treatment tolerance study (MES test); conditions: rats
Procedure: Compound C, i.e., N-acetyl-D, L-phenylglycine N-benzylamide was subjected to 5-day chronic treatment on anticonvulsant activity (maximal electroshock). 3 groups of 8 animals each were treated as follows. One group was given the MES ED50 of the test drug for 5 days; the second group was given the requisite volume of the vehicle (0.04 ml/10 g body wt.) for 4 days and a single dose (MES ED50) of the test drug on day 5; and the third group was given the requisite volume of the vehicle daily for 5 days. At the time of peak effect of the candidate substance on day 5, all groups were subjected to the MES test and the number of animals protected recorded. Seizure components of the unprotected animals were timed to the nearest 10th of a second and the extensor/flexor (E/F) ratio, S.E., and p value determined. Since extensor duration decreases and flexor duration increases as a maximal seizure is attenuated, the E/F ratio provides a measure of seizure severity.

[4] = motor impairment (ataxia, gait, stance) observation, rats (po); conditions: male, Sprague Dawley, in vivo, rat
From the text: as §1, §2

SMILES	RAT ED50 Neurotox (motor impairment; oral (Table 6)) [mg/kg]	tox, TD50 (motor impairment; rat, po, at time of peak effect)	hexobarbital sleep time (hexobarbital sleep time; 5-day treated (48 mg/kg)) [min]	hexobarbital sleep time (hexobarbital sleep time; acute control (single dose 48 mg/kg)) [min]	tox, TD50 [1]	ED50 [2] [mg/kg]	tolerance to the anticonvulsant effects (MES Test) ([3]; 5 daily doses of 48 mg/kg)	animals protected, MES test ([3]; chronically treated group, 5 daily doses of 48 mg/kg)	animals protected, MES test ([3]; single dose acute control group, MES ED50 (48 mg/kg))	ED50 ([4]; oral (Table 6), read-out: RAT ED50 Neurotox) [mg/kg]	TD50 ([4]; po, at time of peak effect, read-out: tox, TD50) [mg/kg]
COC[C@@H](NC(C)=O)C(=O)NCc1ccccc1 [Ex. 1, 2, (R)-N-Benzyl-2-Acetamide-3-methoxypropionamide]	>500	>500 [0.5] mg/kg									
CC(=O)NC(C)C(=O)NCc1ccccc1 (racemic) [compound 1, N-Acetyl-D,L-alanine-N′-benzylamide]			44.4 ± 1.9	34.3 ± 1.1	454 [0.5] mg/kg	454	does not induce tolerance	3/8	4/8	> 1000	> 1000
